# Reference: patent US8357350B2, “Annulus fibrosus detection in intervertebral discs using molecular imaging agents” (General Electric Company, priority 2009, dated 2013)
# How the values were obtained:
# [1] = test system: dorsal root ganglia; experiment: FM fluorophore uptake, intraoperative fluorescence imaging; format: in vivo, mice and rats; settings: 5 mg/kg mice, 0.5 mg/kg rats IP, 16 hours before imaging; signal normalized to muscle, vs vehicle control; further: key: +: Positive contrast was concluded if the nerve-to-muscle contrast ratio of FM fluorophore-injected animals was elevated relative to control animals
# Method: (§1) Imaging was carried out at near infrared wavelenghts using a 400- to 700-nm “white” light (0.5 mW/cm^2) and a 725- to 775-nm NIR fluorescence excitation light (5 mW/cm^2). Fluorescence images were collected using exposure times ranging from 500 to 2000 msec. All images collected for comparison between vehicle-injected control animals and FM fluorophore-injected animals had the same exposure time and normalization. Color video images were collected on a separate optical channel using custom designed software. The excitation and emission LEDs and filter used for the FM fluorophores and Pam800 in the intraoperative imaging system are described as follows. For fluorescence excitation of FM 1-43, FM 2-10, FM 1-43FX and Formula IA, sixty 5-mm 470 nm LEDs ([…], Inc., Kyoto, Japan) fitted with 470±20 nm band pass (BP) excitation filters (Chroma Technology, Rockingham, Vt.) in custom holders were used, which produced a fluence rate on the imaging surface of 0.56 mW/cm^2. For fluorescence excitation of Formula II, FM 4-64, FM 4-64FX and FM 5-95, sixty 5-mm 535 nm LEDs fitted with 525±25 nm BP excitation filters were used, which produced a fluence rate on the imaging surface of 0.34 mW/cm^2. A 610±38 nm BP filter was used to detect fluorescence emission of FM 1-43, FM 2-10, Formula II, FM 1-43FX and Formula IA. To detect fluorescence emission of FM 4-64, FM 4-64FX and FM 5-95 a 720 nm long pass (LP) filter was used. For fluorescence excitation of Pam800, 348 5-mm 760 nm LEDs fitted with 764±17 nm BP excitation filters were used, which produced a fluence rate on the imaging surface of 8.73 mW/cm^2 and fluorescence emission was detected using a 824±24 nm BP emission filter. To assess the structure-activity relationship of the FM fluorophores, each molecule was administered at 5 mg/kg to mice and 0.5 mg/kg to rats (n=4 per group) in 10% DMSO and 90% PBS IP 16 hours before imaging with the intraoperative system. The fluorescence signal from the spinal cord, intervertebral discs, dorsal root ganglia, trigeminal ganglia, optic nerve, brain and femoral nerve were normalized to muscle signal in the same image. This normalization ratio was then compared between FM fluorophore-injected animals and vehicle-injected control animals.
# [2] = test system: intervertebral discs; experiment: as above; format: in vivo, mice and rats
# Method: as §1
# [3] = test system: trigeminal ganglia; experiment: as above; format: in vivo, mice and rats; settings: 5 mg/kg mice, 0.5 mg/kg rats IP, 16 hours before imaging; signal normalized to muscle, vs vehicle control; further: key: +: Positive contrast was concluded if the nerve-to-muscle contrast ratio of FM fluorophore-injected animals was elevated relative to control animals
# Method: as §1
# [4] = test system: intervertebral discs; experiment: Two-wavelength imaging of resected spine with Pam800 and FORMULA IA; format: in vivo, Sprague-Dawley rat; settings: rat
# Method: Imaging was carried out at near infrared wavelenghts using a 400- to 700-nm “white” light (0.5 mW/cm^2) and a 725- to 775-nm NIR fluorescence excitation light (5 mW/cm^2). Fluorescence images were collected using exposure times ranging from 500 to 2000 msec. All images collected for comparison between vehicle-injected control animals and FM fluorophore-injected animals had the same exposure time and normalization. Color video images were collected on a separate optical channel using custom designed software. The excitation and emission LEDs and filter used for the FM fluorophores and Pam800 in the intraoperative imaging system are described as follows. For fluorescence excitation of FM 1-43, FM 2-10, FM 1-43FX and Formula IA, sixty 5-mm 470 nm LEDs (Epitex, Inc., Kyoto, Japan) fitted with 470±20 nm band pass (BP) excitation filters (Chroma Technology, Rockingham, Vt.) in custom holders were used, which produced a fluence rate on the imaging surface of 0.56 mW/cm^2. For fluorescence excitation of Formula II, FM 4-64, FM 4-64FX and FM 5-95, sixty 5-mm 535 nm LEDs fitted with 525±25 nm BP excitation filters were used, which produced a fluence rate on the imaging surface of 0.34 mW/cm^2. A 610±38 nm BP filter was used to detect fluorescence emission of FM 1-43, FM 2-10, Formula II, FM 1-43FX and Formula IA. […]
# Wherever Uptake: Intervertebral Disc is given: key: +: Positive contrast was concluded if the nerve-to-muscle contrast ratio of FM fluorophore-injected animals was elevated relative to control animals.
compound,measurement,setting,value
"CCCCN(CCCC)c1ccc(/C=C/c2cc[n+](CCC[N+](C)(C)C)cc2)cc1.[Br-].[Br-] [Formula IA, (E)-4-(4-(dibutylamino)styryl)-1-(3-(trimethylammonio)propyl)pyridinium dibromide]",Uptake: Dorsal Root Ganglia,[1],+
same,Uptake: Intervertebral Disc,"[2]; 5 mg/kg mice, 0.5 mg/kg rats IP, 16 hours before imaging, signal normalized to muscle, vs vehicle control",+
same,contrast in the intervertebral discs,[2]; IP administration to mice and rats,positive contrast
same,Uptake: Trigeminal Ganglia,[3],+
same,overlap of signals with Pam800 (bone),[4]; 7.5 nmol Pam800 16 h and 2 mg/kg Formula IA 4 h post-IV,no overlap
same,specificity of fluorescence signal in the spine,"[4]; 2 mg/kg IV, 4 h, sagittal spine and disc cross-section",specific for the intervertebral discs
